Results on two molecules are retold here after patent US20250034510A1, “SYSTEMS, DEVICES, AND METHODS FOR BIOLOGICAL MATERIAL RESTORATION AND/OR CRYOPRESERVATION” (Oregon State University, priority 2023, published 2025).

Where “and” joins values, the source holds several entries; their conditions need not be identical. Identical values can stand only once.

The subject of series [1] is nucleus pulposus (NP) cells. In words: Cytotoxicity of CPA 1 on NP cells in monolayer culture (LIVE/DEAD assay). In kind it is cell-based, bovine. As to conditions: PG as part of CPA 1 (FIG. 13). The text has this: In this example, NP cells were isolated following a protocol adapted and modified from Wiseman et al. (Wiseman, M. A., H. L. Birch, M. Akmal, and A. E. Goodship, Spine, 2005, 30:505-11). Two freshly skinned skeletally mature bovine tails were obtained from a local abattoir, disinfected for five minutes in a 1% Betadine solution (RC3955, VWR International, PA), and allowed to dry in a sterile environment for ten minutes. Muscle and fat tissue were removed from each tail, exposing the IVDs. The isolated IVDs were wrapped with a sterile gauze soaked in 0.9% sodium chloride (IC102892.5, VWR International, PA) and 55 mM sodium citrate (BDH9288, VWR International, PA) while awaiting dissection.
NP tissue was removed with a scalpel, cut into 4 mm^2 pieces, and digested in a humidified cell incubator at 37° C. and 5% CO2. […]
In this example, NP cells were cultured in 6 well-plates to elucidate the cytotoxicity of CPA 1 composed of 80% DMEM (D6046, Sigma), 10% DMSO (IC0219605590, VWR International, PA), and % 10 propylene glycol (PG) (P4347, Sigma, MO). […] Cells were stained with a fluorescent LIVE/DEAD™ assay (L3224, ThermoFisher, MA) and scanned using Keyence BZ-X700 fluorescence microscope (Oregon State University, OR). […]

The nature of series [2]: DMSO penetration in IVDs tracked by CT. As to conditions: for DMSO saturation level: free swelling IVD without compression, 10% DMSO. Format: in vitro ADME, bovine. The protocol:
In this example, the transport of DMSO in free-swelling IVDs was assessed. Three skeletally mature Black Angus bovine IVDs were incubated in 10% DMSO for three days and CT-scanned at 0, 24, 56, and 72 hours. DMSO penetration was tracked using a Toshiba Aquilion 64-slice Computed Tomography (CT) unit provided by the Carlson College of Veterinary Medicine at Oregon State University. Acquisition parameters were set to 120 kVp, 240 FoV, 0.6 pitch, and 250 mA.
Materialize Mimics® 21.0 was used to segment the IVD's soft tissue (AF and NP). A code was developed in MATLAB® 9.9 to perform a Gaussian curve-fitting analysis of the segmented scans, estimating the mean signal intensity (FIG. 12).
The correlation in equation 1 was developed To relate mean signal intensity to penetration %, the mean signal intensity was normalized for the sample of interest (IVDn) to the intensities of both a fresh IVD (IVD0) and a fully-saturated IVD (IVDF*).
The effectiveness of PrimeGrowth™ (n=3) and compression (n=3) in improving the transport of DMSO and decreasing cell CPA exposure time were also assessed. PrimeGrowth™ is designed to clear blood clots in the CEP, improving transport through its pores and channels. Axial compression could enhance the convection transport of fluids in the IVD. IVDs treated with PrimeGrowth™ were incubated in a 30 mL Isolation Medium for one hour and rinsed in an equal volume of Neutralization Medium for two minutes. In a separate protocol, bovine IVDs were compressed in a custom-built bioreactor for four hours under a sine-wave load (0 MPa to 2.5 MPa at 0.1 Hz) and soaked in 10% DMSO. DMSO penetration in IVDs was tracked via CT scans compared to a control group (n=3) soaking in 10% DMSO. CT scans were acquired at 0, 5, 8, 24, and 36 hours.

Take `CC(O)CO` (stereo not shown) [PG, propylene glycol]: in series [1], the “effect on cell viability in a monolayer cell culture” value is recorded as “devastating for cell viability”.
Consider `C[S+](C)[O-]` [DMSO, dimethylsulfoxide], for which the “time required for DMSO to fully saturate the disc” value in series [2] (IVD compressed before soaking in 10% DMSO) was 3 h. Further, the “time required to reach a 75% level of penetration” value in series [2] (IVD without compression) was found to be 72 h. Further, in series [2] (IVD without compression (FIG. 14)), the “time to reach equilibrium with the surrounding solution” value stood at 72 h. The DMSO penetration result is “about 90%” in series [2] (compression then free swelling, in 3 to 4 hours) and 97% in series [2] (compression, at 3 hours). In series [2] (compression vs no compression), the “decrease of the time required for full penetration by compression (improvement)” value is 96% and 95%. Further, the DMSO saturation level in series [2] (after 24 hours) is listed as 50%; in series [2] (by 72 hours of incubation), 75%. Further, the “mean DMSO penetration % compared to time 0 (one-way ANOVA, p<0.05)” value in series [2] (free-swelling IVDs, after 24 hours of incubation) is reported as “significantly different”.
